# Experimental data published in patent US12258424B2, “Polypeptides and compositions comprising the same” (priority 2020, dated 2025).
# Residues, ends and D or L forms follow the SMILES beside them.
# What was measured:
# [1] = Proteolytic stability in 50% human serum (LC-MS); format: in vitro ADME
# Experimental: Half-life in 50% human serum. Proteolytic stability of the peptides was investigated using LC-MS. Solutions of the anti-PD-L1 peptides were incubated with 50% human serum at […], aliquots were taken at specific time points for processing and subsequent LC-MS analysis.
# hPD-L1 [2] = target: T1, hPD-L1 (Homo sapiens, UniProt Q9NZQ7); test: PD-1/PD-L1 inhibitor screening ELISA, human proteins; format: binding; design: purchased Acro Biosystems EP-101
# T1 sequence (Q9NZQ7 19-238 limits assumed): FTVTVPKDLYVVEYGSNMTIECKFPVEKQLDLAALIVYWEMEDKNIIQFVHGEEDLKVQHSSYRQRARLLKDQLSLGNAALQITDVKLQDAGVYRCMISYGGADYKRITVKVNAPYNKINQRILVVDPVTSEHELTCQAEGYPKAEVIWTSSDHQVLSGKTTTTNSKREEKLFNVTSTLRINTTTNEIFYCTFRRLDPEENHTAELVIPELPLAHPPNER
# Experimental: (§1) Blocking efficiency at 10 μM/IC50 against human and mouse PD1/PD-L1 (ELISA). […] 100 ng of recombinant human PD-L1 protein was coated in 96-well plates at 4° C. for 16 h with shaking over an orbital shaker. Unbound protein was removed by washing twice with PBS (pH 7.2-7.4), 2% BSA was added for 1.5 h at 37° C. to block the plate. Specific concentrations of the peptides were dispensed into the appropriate wells and incubated for 2 h at 37° C. […] This was followed by the addition of streptavidin-HRP and chromogenic substrate (R & D systems). The color reaction was terminated with 2N H2SO4, absorbance was recorded at OD450 and referenced to OD540.
# PD1/PD-L1 = PD1/PD-L1 (Homo sapiens, UniProt Q9NZQ7); test: IC50 and blocking efficiency against PD1/PD-L1 (Table 5); format: binding
# PD1/PD-L1, sequence (Q9NZQ7 19-238 limits assumed): as above
# Experimental: as §1
# [3] = target: T2, recombinant human PD-L1 ECD protein (Homo sapiens, UniProt Q9NZQ7); test: SPR binding kinetics and affinity to immobilized human PD-L1; details: for kon: read-out: Ka
# T2 construct: against the recombinant human PD-L1 ECD protein were evaluated using SPR; purchased G&P Biosciences FCL0784B
# T2 sequence (Q9NZQ7 19-238 limits assumed): as above
# Experimental: In such aspects, the equilibrium dissociate constant KD value against recombinant human PD-L1 can be determined according to an KD to PD-L1 SPR Assay. The KD to PD-L1 SPR Assay can include the use of Surface Plasmon Resonance (SPR), such as the B14500, Biosensing Instrument, and can include the following procedures. The PD-L1 protein can be diluted to 10 μg/mL with sodium acetate buffer (pH 5.0, GE Healthcare, PA) and covalently coated onto a CM5 sensor chip (CM Dextran Sensor Chip, Biosensing Instrument) using the standard Amine Coupling Kit (GE Healthcare, PA). Approximately 6500 RU of PD-L1 protein are immobilized onto the chip. A second channel is used as a reference. HBS-EP+ buffer (GE Healthcare) can be employed at a flow rate of 60 μL/min. A series of concentrations of each peptide (15, 30, 60, 125, 250, 500, 1000, 5000 and 10,000 nM) is prepared in HBS-EP+ running buffer to obtain the equilibrium dissociation constant (KD) values of the peptides. The CM5 sensor chip can be regenerated with 10 mM NaOH for 20 s. The results can be analyzed using the software of Bi data analysis software.
# Evaluation of Binding Kinetics and Affinity By Surface Plasmon Resonance (SPR). Binding affinities of the PD-L1 specific peptides for human PD-L1 protein were determined by SPR (B14500, Biosensing Instrument). PD-L1 protein was diluted to 10 μg/mL with sodium acetate buffer (pH 5.0, GE Healthcare, PA) and covalently coated onto a CM5 sensor chip (CM Dextran Sensor Chip, Biosensing Instrument) using the standard Amine Coupling Kit (GE Healthcare, PA). Approximately 6500 RU of PD-L1 protein were immobilized onto the chip. A second channel was used as a reference. HBS-EP+ buffer (GE Healthcare) was employed at a flow rate of 60 μL/min. A series of concentrations of each peptide (15, 30, 60, 125, 250, 500, 1000, 5000 and 10,000 nM) were prepared in HBS-EP+ running buffer to obtain the equilibrium dissociation constant (KD) values of the peptides. The CM5 sensor chip was regenerated with 10 mM NaOH for 20 seconds. The results were analyzed using the software of Bi data analysis software. Binding affinities of the anti-PD-L1 peptides to BSA was also assessed following the procedure for human PD-L1.
# hPD-L1 [4] = target: T1, hPD-L1; test: Blockade of the PD-1/PD-L1 interaction, plate coated with human PD-L1 protein; format: binding; design: PD-L1 protein (G&P Biosciences, human PD-L1 ECD, cat #FCL0784B); purchased G&P Biosciences FCL0784B (PD-L1)
# Experimental: (§2) Ninety-six-well plates were coated with 100 ng of PD-L1 protein (G&P Biosciences, human PD-L1 ECD, cat #FCL0784B. mouse PD-L1, cat #FCL3502B) and later blocked with 2% BSA for 2 hours at room temperature. Various concentrations of peptides were loaded into the wells and incubated for 1 hour at room temperature. […] Streptavidin-HRP (R & D systems) and chromogenic substrate were added into the wells. OD450 was then recorded and referenced to OD540.
# 4T1 cancer cell = format: cell-based, mouse; details: for Blocking Efficiency (%): 4T1 cancer cell; for IC50: 2 h
# [5] = tested on: IFNγ, PD-L1 and IL-6 in CT26 tumors; test: ELISA of IFNγ, PD-L1 and IL-6 in harvested CT26 tumors; format: in vivo, mouse
# From the text: (§3) Animal Study. The animal protocol was approved by the University of Missouri-Kansas City, Institutional Animal Care and Use Committee (IACUC). Five-week old male and female Balb/c mice were purchased from Charles Rivers Laboratories (Wilmington, Mass.) and housed in a temperature and humidity controlled room on a 12-hour light-dark cycle. Approximately 5×10^5 CT26 cells were subcutaneously injected into the right flank. The mice were randomly divided into five different groups (10 mice/group, 50% female, 50% male). The mice were intraperitoneally injected with 2 mg/kg peptide daily when the tumor size reached 50-100 mm^3. The anti-mouse PD-L1 antibody (10F.9G2, BioXcell) was administrated as a positive control at a dose of 10 mg/kg every two days. The tumor size was assessed with a caliper and calculated with the formula 0.5×length×width^2. ELISA kits of PD-L1 (Cat #DY1019-05), IFNγ (Cat #DY485-05), and IL-6 (Cat #DY406-05) were used to measure the expressions of PD-L1, IFNγ, and IL-6, respectively, in tumors as per the company's instructions (R & D Systems, Minneapolis, MN).
# [6] = tested on: CT26 tumor-bearing Balb/C mice; test: Survival of CT26 tumor-bearing Balb/C mice; format: in vivo, mouse
# From the text: as §3
# In this Example, mice were intraperitoneally injected with the CLP002 (SEQ ID NO:2) and CLP003 (SEQ ID NO:3) peptides daily or the anti-mouse PD-L1 antibody every other day from day 4 to day 17 (see survival curves in FIG. 7a). Specifically, CT26 tumor-bearing Balb/C mice (n=10, 5 male and 5 female) were intraperitoneally injected with the anti-PD-L1 peptides (2 mg/Kg) daily and the anti-mouse PD-L1 antibody (10 mg/Kg) every other day from day 4 to day 17. GraphPad Prism 7 software (San Diego, Calif.) was used for statistical analysis. Comparison of two survival curves were conducted using the Gehan-Breslow-Wilcoxon test. […] By contrast, only 20% of the mice in the CLP002 (SEQ ID NO:2) group were dead by day 17.
# [7] = tested on: CT26 colorectal tumor-bearing mouse model; test: Anti-tumor activity in CT26 tumor-bearing Balb/C mice; format: in vivo
# From the text: as §3
# The anti-mouse PD-L1 antibody (BioXcell, 10F.9G2) was administered intraperitoneally every other day at 10 mg/kg. […] In general, CLP002 (SEQ ID NO:2) exerted a better tumor inhibitory effect than CLP003 (SEQ ID NO:3), which was similar to the antibody. […] In FIG. 6e the weight of the tumors harvested at day 14 is shown. The results were represented as the mean±SD (n=10). It is noteworthy that the peptides were screened against the human PD-L1 protein, which, in fact, would compromise the anti-tumor activity of the peptides in a mouse model.
# DU145 cancer cell = format: cell-based, human; details: for IC50: 2 h; for Blocking Efficiency (%): DU-145 cancer cells
# Experimental: as §2
# The blocking efficiency of the anti-PD-L1 peptides at 10 μM (FIG. 2c). […] The IC50 of each peptide was also determined using recombinant human PD-L1 protein and DU-145 cancer cells.
# [8] = tested on: CD8+ T cells in CT26 tumor tissues; test: IHC staining of CD8+ T cells in CT26 tumor tissues; format: in vivo, mouse
# Experimental: Immunohistochemistry (IHC) Staining. Tumor tissues were fixed in 10% formalin, embedded in paraffin, sectioned, and mounted on glass slides by Truman Medical Centers Anatomic Pathology Core (Kansas City, MO). The slides were heated in Tris buffer (pH 9.0) for 45 min to recover antigen. After deparaffinization and rehydration, the sections were stained with the anti-mouse CD8 alpha antibody (Abcam, ab209775) overnight at 4° C. The slides were incubated with a biotinylated goat anti-rabbit secondary antibody, followed by the DAB chromogen mixture. Four sections (2 male and 2 female) were imaged in each group. For each section, 3 regions were randomly selected for imaging.
# mPD-L1 = mPD-L1 (Mus musculus, UniProt Q9EP73); test: Blockade of the mouse PD-1/PD-L1 interaction, mouse PD-L1 protein; format: binding; design: purchased G&P Biosciences FCL3502B (PD-L1); details: mouse PD-L1 protein
# mPD-L1, sequence (Q9EP73 19-239 limits assumed): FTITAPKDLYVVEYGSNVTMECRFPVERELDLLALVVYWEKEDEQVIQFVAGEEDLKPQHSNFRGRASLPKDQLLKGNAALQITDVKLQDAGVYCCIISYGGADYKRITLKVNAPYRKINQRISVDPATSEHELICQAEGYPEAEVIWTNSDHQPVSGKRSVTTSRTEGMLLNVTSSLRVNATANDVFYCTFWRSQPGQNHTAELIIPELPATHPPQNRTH
# Experimental: as §2
# [9] = target: human PD-L1/CD80 interaction (Homo sapiens, UniProt Q9NZQ7); test: Blockade of the CD80/PD-L1 interaction; format: binding; details: at 10 μM, FIG. 8a
# human PD-L1/CD80 interaction, sequence (Q9NZQ7 19-238 limits assumed): as the sequence (Q9NZQ7 19-238 limits assumed) above
structure (smiles),measurement,setting,value
C[C@@H](O)[C@H](NC(=O)[C@H](Cc1ccc(O)cc1)NC(=O)[C@H](Cc1ccc(O)cc1)NC(=O)[C@H](CO)NC(=O)[C@H](CCCNC(=N)N)NC(=O)[C@H](Cc1c[nH]cn1)NC(=O)[C@@H](N)Cc1c[nH]c2ccccc12)C(=O)N[C@@H](Cc1c[nH]c2ccccc12)C(=O)N[C@@H](CC(N)=O)C(=O)O [CLP2TR3] (H-WHRSYYTWN-OH; N-terminus and C-terminus assumed),half-life,[1],15 min
same,% Blocking efficiency at 10 μM (ELISA) hPD-L1,hPD-L1 [2],80%
same,% Blocking efficiency at 10 μM,PD1/PD-L1,80%
CC(C)C[C@H](NC(=O)[C@H](Cc1c[nH]c2ccccc12)NC(=O)[C@H](CCCNC(=N)N)NC(=O)[C@H](Cc1c[nH]c2ccccc12)NC(=O)[C@H](CC(N)=O)NC(=O)[C@H](Cc1ccc(O)cc1)NC(=O)[C@H](CO)NC(=O)[C@H](Cc1ccccc1)NC(=O)[C@H](Cc1c[nH]cn1)NC(=O)[C@@H](N)Cc1c[nH]c2ccccc12)C(=O)N1CCC[C@H]1C(=O)N1CCC[C@H]1C(=O)O [CLP003] (H-WHFSYNWRWLPP-OH; N-terminus and C-terminus assumed),Kd,[3],117 nM
same,kon,[3],22600 M⁻¹ s⁻¹
same,IC50,hPD-L1 [4]; plate coated with human PD-L1 protein,2220 nM
same,Blocking Efficiency (%),4T1 cancer cell,50%
same,IC50,4T1 cancer cell,1000 nM
same,IL-6 expression in tumor tissues,[5],decreased expression of IL-6
same,Tumor growth in the survival study,"[6]; Example 7, individual growth curves",other mice experienced a rapid tumor progression
same,Mice died on day 17 (in words),[6]; n=10,only one mouse died on day 17
same,Survival of tumor-bearing mice,[6]; treatment from day 4 to day 17,modestly improved the survival
same,Tumor growth,"[7]; peptides 2 mg/kg i.p. daily, antibody 10 mg/kg i.p. every other day",effectively suppressed tumor growth
same,Tumor weights at day 14,[7]; versus saline group,significantly smaller than the saline group
same,IC50,DU145 cancer cell,3050 nM
same,Blocking Efficiency (%),DU145 cancer cell,56%
same,Density of CD8+ T cells in tumor tissues,[8],significantly increased
CC(C)C[C@H](NC(=O)[C@@H](NC(=O)[C@@H]1CCCN1C(=O)[C@H](CC(C)C)NC(=O)[C@H](CO)NC(=O)[C@@H]1CCCN1C(=O)[C@H](CC(=O)O)NC(=O)[C@H](Cc1c[nH]cn1)NC(=O)[C@H](Cc1ccc(O)cc1)NC(=O)[C@@H](N)CC(=O)O)[C@@H](C)O)C(=O)N[C@@H](CCCNC(=N)N)C(=O)N[C@@H](CCCCN)C(=O)O [CLP004] (H-DYHDPSLPTLRK-OH; N-terminus and C-terminus assumed),kon,[3],5140 M⁻¹ s⁻¹
same,Blocking Efficiency (%),hPD-L1 [4]; human PD-L1 protein,52%
same,Blocking Efficiency (%),4T1 cancer cell,34%
same,IC50,4T1 cancer cell,730 nM
same,Blocking Efficiency (%),mPD-L1,48%
same,IC50,mPD-L1,1910 nM
same,Blocking efficiency against CD80/PD-L1 interaction,[9],~27%
same,IC50,DU145 cancer cell,200 nM
same,Blocking Efficiency (%),DU145 cancer cell,60%
